Results from patent US20130231366A1, “Use of a Novel Alpha-7 Nachr Antagonist to Suppress Pathogenic Signal Transduction in Cancer and Aids” (UNIVERSITY OF KENTUCKY RESEARCH FOUNDATION, priority 2008, published 2013).
Read-outs that look alike come from different tables or passages of the source.

Assays:
Type in all cases: cell-based
[1] = molecular target: T1, rat α4β2 nAChRs (Rattus norvegicus, UniProt P09483+P12390); experiment: Voltage-clamp recording in Xenopus oocytes expressing rat α4β2 nAChRs; conditions: for recovery of responses to ACh alone after co-application: 5 min washout
T1 construct: expressed in transfected cells; host or cells: Xenopus laevis oocytes injected with subunit cRNAs
Protocol: (§1) For recombinant nAChR studies, mature (>9 cm) female Xenopus laevis African frogs (Nasco, Ft. Atkinson, Wis.) were used as a source of oocytes. Prior to surgery, frogs were anesthetized by placing the animal in a 1.5 g/l solution of MS222 (3-aminobenzoic acid ethyl ester) for 30 min. Oocytes were removed from an incision made in the abdomen. All procedures involving frogs were approved by the University of Florida Institutional Animal Care and Use Committee (IACUC).
(§2) Stage 5 oocytes were then isolated and injected with 50 n1 (5-20 ng) each of the appropriate subunit cRNAs. The rat neuronal nAChR clones were obtained from Dr. Jim Boulter (UCLA, Los Angeles, Calif.). After linearization and purification of cloned cDNAs, RNA transcripts were prepared in vitro using the appropriate mMessage mMachine kit from Ambion (Austin, Tex.).
(§3) Experiments were conducted using OpusXpress 6000A (Molecular Devices, Union City Calif.). […] Net charge values were used to report inhibitory effects. […] Means and standard errors (SEM) were calculated from the normalized responses of at least four oocytes for each experimental concentration. Concentration-response data were fit to the Hill equation assuming negative Hill slopes.

[2] = molecular target: T2, rat α7 nAChRs (Rattus norvegicus, UniProt Q05941); experiment: Voltage-clamp recording in Xenopus oocytes expressing rat α7 nAChRs; conditions: for recovery of responses to ACh alone after co-application: 5 min washout; for effect of voltage on inhibition of α7 receptors: −40 or −80 mV, 60 μM ACh; for Imax of ACh concentration-response in the presence of antagonist: ACh alone Imax=1; for inhibition at 1 µM: 1 μM tPyQB
T2 construct: expressed in transfected cells; host or cells: Xenopus laevis oocytes injected with subunit cRNA
Protocol: as §1, §2, §3

[3] = molecular target: T3, native α7 receptors on rat hippocampal interneurons (Rattus norvegicus, UniProt Q05941); experiment: Patch-clamp recording of ACh-evoked responses of hippocampal interneurons in brain slices; conditions: 1 μM bath-applied; for reduction of ACh-evoked responses: 1 mM ACh
T3 construct: Native α7 Receptors on Rat Hippocampal Interneurons; from tissue; host or cells: interneurons of CA1 stratum radiatum in fresh rat brain slices
Protocol: (§4) All procedures involving rats were approved by the University of Florida IACUC and were in accord with the NIH Guide for the Care and Use of Laboratory Animals. Male Sprague Dawley rats (post-natal day 12-25) were anesthetized with Halothane (Halocarbon Laboratories, River Edge N.J.) and swiftly decapitated. Transverse ([…]) whole brain slices were prepared using a vibratome (Pelco, Redding, Calif.) and then placed in a high Mg^2+/low Ca^2+ ice-cold artificial cerebral spinal fluid (ACSF) containing (in mM) 124 NaCl, 2.5 KCl, 1.2 NaH2PO4, 2.5 MgSO4, 10 D-glucose, 1 CaCl2, and 25.9 NaHCO3, saturated with 95% O2-5% CO2. Slices were incubated at 30° C. for 30 minutes and then left at room temperature until they were transferred to a submersion chamber (Warner Instruments, Hamden, Conn.) for recording. During experiments, slices were perfused at a rate of 2 ml/min with normal ACSF containing (in mM) 126 NaCl, 3 KCl, 1.2 NaH2PO4, 1.5 MgSO4, 11 D-glucose, 2.4 CaCl2, 25.9 NaHCO3, and 0.004 atropine sulfate, saturated with 95% 02-5% CO2 at 30° C. Cells were visualized with infrared differential interference contrast microscopy using a Nikon E600FN microscope. Patch-clamp recording pipettes were pulled from borosilicate glass (Sutter Instruments, Novato, Calif.) using a Flaming/Brown micropipette puller (P-97; Sutter Instruments, Novato, Calif.). Recording pipettes were filled with an internal solution of (in mM) 125K-gluconate, 1 KCl, 0.1 CaCl2, 2 MgCl2, 1 EGTA, 2 MgATP, 0.3 Na3GTP, and 10 HEPES (pH adjusted to 7.3 with KOH). The resistance of the recording pipette when filled with the internal solution was 3-5 MΩ. Cells were held at −70 mV, and a −10 in V/10 ms test pulse was used to determine access resistance, input resistance, and whole-cell capacitance. Cells with access resistances >60 MΩ or those requiring holding currents >200 pA were not included in the final analyses. Signals were digitized using an Axon Digidata1322A and sampled at 20 kHz on a Dell computer using Clampex version 8 or 9. Data analysis was done with Clampfit version 8 or 9 (Axon Instruments, Union City, Calif.), Excel 2000 (Microsoft, Seattle, Wash.), and GraphPad/Prism version 4.02 (Graphpad Software, San Diego, Calif.). Data are reported as mean±SEM. Statistical analyses were performed using two-tailed Student's t-test and one-way analysis of variance (ANOVA).
(§5) Single-barrel pipettes were pulled from borosilicate glass with an outer diameter (o.d.) and inner diameter (i.d.) of 1.5 mm and 0.86 mm, respectively (Sutter Instrument, Novato, Calif.). Pipette opening size of the single barrel was typically 2-3 μm. Double-barrel pipettes were pulled from borosilicate theta glass with an o.d. of 1.5 mm; pipette opening size was around 3-4 μm. The application pipette was usually placed within 10-15 μm of the cell soma.
(§6) In experiments in which AQA analogs were bath-applied, for each cell, four ACh baseline-evoked responses were recorded before bath application of the antagonist. ACh-evoked responses were then recorded for 13-22 min in the presence of the AQA analog. Each analog was bath-applied at a final concentration of 1 μm. In some septum experiments, dihydro-β-erythroidine (DHβE) was also bath-applied at a final concentration of 1 μm.
Stable ACh-evoked responses were obtained from hippocampal interneurons in fresh brain slices and then applied 1 μM tPyQB, tPy2PiB, or tkP3BzPB to the bath. […]

[4] = molecular target: T4, rat α3β4 nAChRs (Rattus norvegicus, UniProt P04757+P12392); experiment: Voltage-clamp recording in Xenopus oocytes expressing rat α3β4 nAChRs; conditions: for recovery of responses to ACh alone after co-application: 5 min washout
T4 construct: expressed in transfected cells; host or cells: Xenopus laevis oocytes injected with subunit cRNAs
Protocol: as §1, §2, §3

[5] = system: Type I cells in rat medial septum; experiment: Patch-clamp recording of ACh-evoked responses of medial septal neurons, Type I cells
Protocol: as §4
Single-barrel pipettes were pulled from borosilicate glass with an outer diameter (o.d.) and inner diameter (i.d.) of 1.5 mm and 0.86 mm, respectively (Sutter Instrument, Novato, Calif.). […]
In experiments in which AQA analogs were bath-applied, for each cell, four ACh baseline-evoked responses were recorded before bath application of the antagonist. ACh-evoked responses were then recorded for 13-22 min in the presence of the AQA analog. […]

[6] = system: Type II cells in rat medial septum; experiment: Patch-clamp recording of ACh-evoked responses of medial septal neurons, Type II cells
Protocol: as §4, §5, §6
Neurons in rat medial septum vary in their nAChR-mediated responses. Some neurons (Type I cells) have relatively fast transient ACh-evoked responses, while others (Type II cells) have slower ACh-evoked responses (Thinschmidt et al., 2005a).

[7] = 1 mM ACh+300 μM tkP3BzPB pressure co-application

T1 sequence (P09483 31-630): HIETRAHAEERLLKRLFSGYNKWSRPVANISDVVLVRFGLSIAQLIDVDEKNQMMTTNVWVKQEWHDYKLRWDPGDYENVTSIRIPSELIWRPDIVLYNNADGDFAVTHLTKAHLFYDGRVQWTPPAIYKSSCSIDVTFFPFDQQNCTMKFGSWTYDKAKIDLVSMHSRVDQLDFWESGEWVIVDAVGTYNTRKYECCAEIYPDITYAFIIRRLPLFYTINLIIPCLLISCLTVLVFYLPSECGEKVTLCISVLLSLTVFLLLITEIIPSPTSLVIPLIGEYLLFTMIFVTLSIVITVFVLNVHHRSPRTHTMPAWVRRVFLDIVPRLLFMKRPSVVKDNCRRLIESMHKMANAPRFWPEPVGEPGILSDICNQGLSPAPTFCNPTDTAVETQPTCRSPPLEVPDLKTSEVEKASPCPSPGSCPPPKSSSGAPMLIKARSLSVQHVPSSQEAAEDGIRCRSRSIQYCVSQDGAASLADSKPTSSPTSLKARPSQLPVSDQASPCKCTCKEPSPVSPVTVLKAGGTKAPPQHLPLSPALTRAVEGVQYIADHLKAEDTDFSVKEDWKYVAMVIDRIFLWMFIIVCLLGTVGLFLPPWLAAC
T1 sequence (P12390 25-500): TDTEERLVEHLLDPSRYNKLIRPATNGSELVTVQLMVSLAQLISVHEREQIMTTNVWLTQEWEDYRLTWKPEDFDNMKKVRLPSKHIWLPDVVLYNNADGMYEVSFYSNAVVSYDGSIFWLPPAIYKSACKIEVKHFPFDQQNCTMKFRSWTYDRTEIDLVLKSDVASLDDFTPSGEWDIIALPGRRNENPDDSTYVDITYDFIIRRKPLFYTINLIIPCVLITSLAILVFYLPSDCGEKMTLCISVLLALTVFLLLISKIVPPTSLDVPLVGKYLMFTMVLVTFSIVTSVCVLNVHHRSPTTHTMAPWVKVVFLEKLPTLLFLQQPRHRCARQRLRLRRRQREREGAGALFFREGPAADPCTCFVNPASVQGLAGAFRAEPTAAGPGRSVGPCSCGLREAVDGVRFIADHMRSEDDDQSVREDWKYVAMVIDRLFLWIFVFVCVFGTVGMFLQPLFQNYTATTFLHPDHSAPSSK
T4 sequence (P04757 26-499): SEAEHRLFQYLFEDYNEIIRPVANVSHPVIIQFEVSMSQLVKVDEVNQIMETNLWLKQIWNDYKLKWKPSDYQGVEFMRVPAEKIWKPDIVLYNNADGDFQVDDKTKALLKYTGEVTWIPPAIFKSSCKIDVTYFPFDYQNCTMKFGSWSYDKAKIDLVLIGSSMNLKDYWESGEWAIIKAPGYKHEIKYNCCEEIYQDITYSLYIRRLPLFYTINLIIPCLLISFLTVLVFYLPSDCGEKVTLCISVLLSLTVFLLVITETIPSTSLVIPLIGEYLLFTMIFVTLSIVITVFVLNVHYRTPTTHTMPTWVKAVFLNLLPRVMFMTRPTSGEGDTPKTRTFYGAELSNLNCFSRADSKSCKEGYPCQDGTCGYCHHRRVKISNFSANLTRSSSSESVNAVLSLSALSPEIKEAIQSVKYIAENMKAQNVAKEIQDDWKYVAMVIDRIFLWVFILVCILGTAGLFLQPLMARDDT
T4 sequence (P12392 21-495): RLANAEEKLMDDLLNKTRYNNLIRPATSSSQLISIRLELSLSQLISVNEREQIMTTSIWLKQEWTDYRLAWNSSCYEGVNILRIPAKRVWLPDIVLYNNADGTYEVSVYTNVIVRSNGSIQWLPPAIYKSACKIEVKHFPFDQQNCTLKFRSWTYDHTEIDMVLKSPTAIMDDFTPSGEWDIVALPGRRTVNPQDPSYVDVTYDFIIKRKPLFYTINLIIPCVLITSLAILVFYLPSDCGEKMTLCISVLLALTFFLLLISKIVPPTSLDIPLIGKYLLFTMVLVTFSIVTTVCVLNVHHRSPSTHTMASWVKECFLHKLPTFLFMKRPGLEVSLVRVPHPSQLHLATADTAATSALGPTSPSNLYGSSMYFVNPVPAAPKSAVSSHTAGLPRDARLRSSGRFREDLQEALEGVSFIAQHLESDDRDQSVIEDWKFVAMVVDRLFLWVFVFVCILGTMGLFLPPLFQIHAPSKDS
T3 sequence (Q05941 23-502): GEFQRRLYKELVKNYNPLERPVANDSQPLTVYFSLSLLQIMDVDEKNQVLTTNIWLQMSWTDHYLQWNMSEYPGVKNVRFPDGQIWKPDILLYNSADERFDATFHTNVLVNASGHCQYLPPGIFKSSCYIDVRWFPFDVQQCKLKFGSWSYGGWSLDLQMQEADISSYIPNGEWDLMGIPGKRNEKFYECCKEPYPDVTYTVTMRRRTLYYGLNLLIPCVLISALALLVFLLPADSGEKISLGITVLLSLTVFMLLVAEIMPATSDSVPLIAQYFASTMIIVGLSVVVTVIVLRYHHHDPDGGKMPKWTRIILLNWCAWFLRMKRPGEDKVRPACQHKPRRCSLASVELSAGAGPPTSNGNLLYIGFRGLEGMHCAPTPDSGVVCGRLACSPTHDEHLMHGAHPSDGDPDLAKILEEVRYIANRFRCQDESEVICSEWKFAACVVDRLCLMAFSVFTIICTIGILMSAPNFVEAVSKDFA
T2 sequence (Q05941 23-502): as above

## c1ccc(Cc2ccc[n+](CCCCCc3cc(CCCCC[n+]4cccc(Cc5ccccc5)c4)c(CCCCC[n+]4cccc(Cc5ccccc5)c4)cc3CCCCC[n+]3cccc(Cc4ccccc4)c3)c2)cc1 [tkP3BzPB, 1,2,4,5-tetra-{5-[1-(3-benzyl)pyridinium]pent-1-yl}benzenetetrabromide]
[1]
  IC50: 48 ± 11 µM
  recovery of responses to ACh alone after co-application: no significant residual inhibition
[2]; 100 nM, typical co-application protocol
  inhibition of 60 μM ACh-evoked responses: virtually no inhibition
[2]; 3 μM for 20 s with or without 60 μM ACh, 5 minute washout
  use-dependence of persistent inhibition: not use-dependent
[2]
  recovery of responses to ACh alone after co-application: decreasing recovery with increasing tkP3BzPB concentrations
  effect of voltage on inhibition of α7 receptors: no significant difference
[2]; after 1 μM co-applied with 60 μM ACh
  recovery time constant: 26.6 ± 0.8 min
[2]; after 5 minutes wash following application at increasing concentrations, read-out: IC50 estimated for recovery data
  IC50: 1.9 ± 0.7 µM
[2]; after application of 3 μM alone, repeated applications of 60 μM ACh
  time constant of recovery: 76 ± 3 min
[2]; read-out: inhibition of the ACh-evoked responses
  inhibition at 0.1 µM: ~80%
[2]; simple co-application with 60 μM ACh, net charge, read-out: IC50 values, α7
  IC50: 1 ± 0.1 µM
[3]
  reduction of ACh-evoked responses: effectively reduced
[3]; 1 mM ACh pressure application
  baseline net charge response remaining after bath application: 0.4±0.7%
  baseline peak response remaining after bath application: 4±0.2%
[4]
  IC50: 9.2 ± 1.2 µM
  recovery of responses to ACh alone after co-application: no significant residual inhibition
[5]; 1 μM bath-applied
  initial evoked response remaining (peak amplitude) after bath application: 12±0.6%
  net-charge evoked response after bath application: fully abolished
[5]; [7]
  average baseline net charge response after co-application: 68±9%
  average baseline peak response after co-application: 72±6%
[6]; 1 μM bath-applied
  baseline response (peak amplitude) at the end of the application: 59±1%
  net-charge evoked response, of the baseline response, after bath application: 79±2%
[6]; [7]
  average baseline net charge response after co-application: 93±10%
  average baseline peak response after co-application: 86±5%

## CO[C@H]1CC=C2CCN3CCC4=C(CC(=O)OC4)[C@]23C1 [DHβE, dihydro-β-erythroidine, reference compound]
[6]; 1 μM DHβE bath-applied
  blockade of residual ACh-evoked responses following tkP3BzPB bath application: largely sensitive to DHβE blockade

## Cc1cccc[n+]1CCCC#Cc1cc(C#CCCC[n+]2ccccc2C)cc(C#CCCC[n+]2ccccc2C)c1 [tPy2PiB, 1,3,5,-tri-{5-[1-(2-picolinium)]-pent-1-yn-1-yl}benzene tribromide]
[1]
  IC50: 103 ± 25 µM
  recovery of responses to ACh alone after co-application: recovered fully
[2]; 3 μM tPy2PiB, holding potential −40 mV
  inhibition of net charge responses: no significant inhibition
[2]; 3 μM tPy2PiB, net charge
  Imax of ACh concentration-response in the presence of antagonist: 0.84±0.02
[2]
  recovery of responses to ACh alone after co-application: recovered fully
  effect of voltage on inhibition of α7 receptors: significant effect of voltage
[2]; read-out: IC50 values, α7
  IC50: 6.3 ± 0.6 µM
[2]; read-out: inhibition of net charge responses, 3 μM tPy2PiB, holding potential −80 mV
  inhibition at 3 µM: 43 ± 3%
[3]
  reduction of ACh-evoked responses: no significant reduction
[4]
  IC50: 10 ± 1.4 µM
  recovery of responses to ACh alone after co-application: recovered fully

## C(#Cc1cc(C#CCCC[n+]2cccc3ccccc32)cc(C#CCCC[n+]2cccc3ccccc32)c1)CCC[n+]1cccc2ccccc21 [tPyQB, 1,3,5-tri-[5-(1-quinolinum)-pent-1-yn-1-yl]-benzene tribromide]
[1]
  IC50: 4.1 ± 1 µM
  recovery of responses to ACh alone after co-application: recovered fully
[2]; 300 nM tPyQB, net charge
  Imax of ACh concentration-response in the presence of antagonist: 0.40±0.01
[2]; 1 μM
  inhibition of 60 μM ACh-evoked responses: completely inhibit
[2]; cells held at −40 mV
  inhibition at 1 µM: 83 ± 2%
[2]; −80 mV
  inhibition at 1 µM: 97.7 ± 0.1%
[2]
  recovery of responses to ACh alone after co-application: recovered fully
  effect of voltage on inhibition of α7 receptors: significant effect of voltage
[2]; read-out: IC50 values, α7
  IC50: 0.13 ± 0.02 µM
[3]
  reduction of ACh-evoked responses: effectively reduced
[4]
  IC50: 1 ± 0.1 µM
  recovery of responses to ACh alone after co-application: recovered fully
